Counter-ions that a name gives are not always drawn. Like-named read-outs stand apart in the source and are kept apart here.
Experiments:
Type in all cases: biochemical
Human Thrombin = Human Thrombin (Homo sapiens, UniProt P00734); assay: Inhibition of amidase activity of thrombin (Kass)
factor Xa = target: T1, factor Xa (Homo sapiens, UniProt P00742); assay: Kass with factor Xa, chromogenic substrate
T1 construct: Human factors X, Xa, IXa, XIa, and XIIa are purchased; purchased Enzyme Research Laboratories, South Bend, Ind
T1 sequence (P00742 235-488 limits assumed): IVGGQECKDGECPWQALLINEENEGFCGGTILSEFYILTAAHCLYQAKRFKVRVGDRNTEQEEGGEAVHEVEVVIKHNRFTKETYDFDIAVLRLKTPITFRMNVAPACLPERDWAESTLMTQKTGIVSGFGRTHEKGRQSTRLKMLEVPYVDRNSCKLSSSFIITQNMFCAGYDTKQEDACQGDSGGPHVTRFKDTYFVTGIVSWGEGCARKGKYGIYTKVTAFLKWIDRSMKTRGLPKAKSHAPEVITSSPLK
T1 sequence (P00742 41-179 partner limits assumed): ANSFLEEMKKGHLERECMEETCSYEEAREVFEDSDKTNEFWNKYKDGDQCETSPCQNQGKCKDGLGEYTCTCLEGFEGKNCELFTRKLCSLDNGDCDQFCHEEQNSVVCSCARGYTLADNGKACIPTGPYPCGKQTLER

Bovine trypsin = target: T2, Bovine trypsin (Bos taurus, UniProt P00760); assay: Kass with trypsin, chromogenic substrate
T2 construct: Bovine trypsin is purchased; purchased Worthington Biochemicals, Freehold, N.J
T2 sequence (P00760 24-246): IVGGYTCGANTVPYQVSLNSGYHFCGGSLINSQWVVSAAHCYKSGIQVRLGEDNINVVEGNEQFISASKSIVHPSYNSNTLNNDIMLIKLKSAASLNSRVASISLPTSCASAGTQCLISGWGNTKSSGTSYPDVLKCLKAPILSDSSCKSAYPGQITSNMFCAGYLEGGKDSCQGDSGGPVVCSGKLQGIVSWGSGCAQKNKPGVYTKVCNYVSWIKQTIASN

Human plasmin = target: T3, Human plasmin (Homo sapiens, UniProt P00747); assay: Kass with plasmin, chromogenic substrate
T3 construct: Human plasmin is purchased; purchased Boehringer Mannheim, Indianapolis, Ind
T3 sequence (P00747 97-810): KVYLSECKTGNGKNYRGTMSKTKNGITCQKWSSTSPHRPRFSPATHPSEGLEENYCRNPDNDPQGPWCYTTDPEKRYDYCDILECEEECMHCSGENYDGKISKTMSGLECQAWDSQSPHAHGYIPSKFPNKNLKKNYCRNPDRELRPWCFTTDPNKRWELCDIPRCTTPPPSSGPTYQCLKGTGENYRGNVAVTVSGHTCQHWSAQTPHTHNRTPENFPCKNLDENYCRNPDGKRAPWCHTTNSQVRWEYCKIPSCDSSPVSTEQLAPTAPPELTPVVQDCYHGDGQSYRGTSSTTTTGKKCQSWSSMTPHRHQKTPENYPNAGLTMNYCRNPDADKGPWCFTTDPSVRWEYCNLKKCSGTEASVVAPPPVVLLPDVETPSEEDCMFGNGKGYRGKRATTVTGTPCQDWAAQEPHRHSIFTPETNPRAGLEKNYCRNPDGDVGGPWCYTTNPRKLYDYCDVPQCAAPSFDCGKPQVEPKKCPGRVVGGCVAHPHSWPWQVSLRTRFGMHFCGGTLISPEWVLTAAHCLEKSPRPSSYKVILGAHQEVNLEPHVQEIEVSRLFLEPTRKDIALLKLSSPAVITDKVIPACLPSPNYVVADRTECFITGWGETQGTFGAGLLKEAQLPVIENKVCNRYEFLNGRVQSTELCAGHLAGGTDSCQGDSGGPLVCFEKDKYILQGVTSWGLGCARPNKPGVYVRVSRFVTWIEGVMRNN
T3 sequence (P00747 97-580 partner limits assumed): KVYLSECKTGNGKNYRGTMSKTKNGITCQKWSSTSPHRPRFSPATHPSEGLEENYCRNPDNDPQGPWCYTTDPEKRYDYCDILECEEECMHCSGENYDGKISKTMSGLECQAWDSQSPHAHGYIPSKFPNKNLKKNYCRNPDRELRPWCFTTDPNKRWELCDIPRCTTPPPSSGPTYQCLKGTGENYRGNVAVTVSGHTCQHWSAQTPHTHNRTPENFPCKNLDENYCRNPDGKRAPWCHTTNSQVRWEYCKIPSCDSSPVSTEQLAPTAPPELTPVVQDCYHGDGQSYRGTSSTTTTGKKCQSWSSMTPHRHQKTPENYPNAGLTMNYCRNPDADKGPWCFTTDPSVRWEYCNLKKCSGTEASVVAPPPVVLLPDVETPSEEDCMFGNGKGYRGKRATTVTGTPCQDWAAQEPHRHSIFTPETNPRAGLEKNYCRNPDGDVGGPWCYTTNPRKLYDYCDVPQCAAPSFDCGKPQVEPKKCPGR
Experimental: (§1) By substantially following the procedures described above for human thrombin, and using other human blood coagulation system serine proteases and proteases of the fibrinolytic system with the appropriate chromogenic substrates, identified below, selectivity of the compounds of the present invention with respect to the coagulation factor serine proteases and with respect to the fibrinolytic system serine proteases are evaluated as well as their substantial lack of interference with serine proteases of the fibrinolytic system. Thrombin inhibitors preferably should spare fibrinolysis induced by urokinase, tissue plasminogen activator (t-PA) and streptokinase. This would be important to the therapeutic use of such agents as an adjunct to streptokinase, t-PA or urokinase thrombolytic therapy and to the use of such agents as an endogenous fibrinolysis-sparing (with respect to t-PA and urokinase) antithrombotic agent. In addition to the lack of interference with the amidase activity of the fibrinolytic proteases, such fibrinolytic system sparing can be studied by the use of human plasma clots and their lysis by the respective fibrinolytic plasminogen activators.
(§2) Human plasmin is purchased from Boehringer Mannheim, Indianapolis, Ind.; nt-PA is purchased as single chain activity reference from American Diagnostica, Greenwich, Conn. modified-t-PA6 (mt-PA6) is prepared at Eli Lilly and Company by procedure known in the art (See, Burck, et al., J. Biol. Chem., 265, […] (1990). Plasmin chromogenic substrate H-D-Val-Leu-Lys-p-nitroanilide and tissue plasminogen activator (t-PA) substrate H-D-Ile-Pro-Arg-p-nitroanilide are purchased from Kabi Vitrum, Stockholm, Sweden.

t-PA = target: T4, t-PA (Homo sapiens, UniProt P00750); assay: Kass with t-PA, chromogenic substrate; details: substrate H-D-Ile-Pro-Arg-p-nitroanilide
T4 construct: purchased American Diagnostica, Greenwich, Conn
T4 sequence (P00750 36-562): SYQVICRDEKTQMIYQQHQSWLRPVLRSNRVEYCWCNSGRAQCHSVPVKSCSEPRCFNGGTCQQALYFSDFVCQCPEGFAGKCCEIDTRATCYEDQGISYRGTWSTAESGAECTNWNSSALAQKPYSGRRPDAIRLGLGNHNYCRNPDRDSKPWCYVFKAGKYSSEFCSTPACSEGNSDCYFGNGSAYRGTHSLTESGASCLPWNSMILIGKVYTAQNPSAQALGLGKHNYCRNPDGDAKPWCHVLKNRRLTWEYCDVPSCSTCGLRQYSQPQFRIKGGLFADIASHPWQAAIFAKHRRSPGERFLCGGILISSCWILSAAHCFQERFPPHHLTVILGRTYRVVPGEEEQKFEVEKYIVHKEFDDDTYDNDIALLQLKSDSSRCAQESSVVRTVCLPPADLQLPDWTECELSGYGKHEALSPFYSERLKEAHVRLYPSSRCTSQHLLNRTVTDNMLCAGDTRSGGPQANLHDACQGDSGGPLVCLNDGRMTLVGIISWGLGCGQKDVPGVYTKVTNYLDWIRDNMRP
Experimental: as §1, §2

Human plasma [1] = assay: Human plasma anticoagulation, thrombin time (TT); details: concentration required to double the thrombin time, linear extrapolation
Summary of the method: (§3)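 Compound was spiked over a wide concentration range into citrated human plasma, and clotting times were read on a coagulation instrument. PT was started with saline plus Thromboplastin-C. APTT used 120 s preincubation with Actin, then 0.02M CaCl2. TT used saline plus bovine thrombin (10 NIH units/mL). Doubling concentrations were obtained by linear extrapolation.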

Human plasma [2] = assay: Human plasma anticoagulation, activated partial thromboplastin time (APTT); details: concentration required to double the APTT, linear extrapolation
Summary of the method: as §3

Human plasma [3] = assay: Human plasma anticoagulation, prothrombin time (PT); details: concentration required to double the PT, linear extrapolation
Summary of the method: as §3

[4] = mean over a range of concentrations, […]
[5] = substrate N-Benzoyl-Ile-Glu-Gly-Arg-p-nitroanilide
[6] = substrate N-Benzoyl-Phe-Val-Arg-p-nitroanilide
[7] = substrate H-D-Val-Leu-Lys-p-nitroanilide

Molecule	Kass Human Thrombin (Human Thrombin; [4])	Kass Xa (factor Xa; [5])	Kass Trypsin (Bovine trypsin; [6])	Kass Plasmin (Human plasmin; [7])	Kass t-PA (t-PA)	Human Plasma Anticoagulation 2× Clotting time TT (Human plasma [1])	Human Plasma Anticoagulation 2× Clotting time APTT (Human plasma [2])	Human Plasma Anticoagulation 2× Clotting time PT (Human plasma [3])	Kass Human Thrombin (Human Thrombin)	Kass Xa (factor Xa)	Kass Trypsin (Bovine trypsin)	Kass Plasmin (Human plasmin)
1-Piq-Pro-p-NHCH2 C6 H4 C(NH)NH2.2HCl [Example 18]	180 × 10^6 (L/mole)	0.21 × 10^6 (L/mole)	14 × 10^6 (L/mole)	0.085 × 10^6 (L/mole)	0.0094 × 10^6 (L/mole)	7 ng/mL	79 ng/mL	170 ng/mL	–	–	–	–
N=C(N)c1ccc(CNC(=O)[C@@H]2C[C@@H]3CCCC[C@@H]3N2C(=O)[C@H]2CCCCN2)cc1 (relative stereo) [Example 20, D-hPro-Ohi-p-NHCH2 C6 H4 C(NH)NH2.3HCl]	–	0.10 × 10^6 (L/mole)	19 × 10^6 (L/mole)	0.10 × 10^6 (L/mole)	0.0077 × 10^6 (L/mole)	62 ng/mL	550 ng/mL	600 ng/mL	10	–	–	–
CCS(=O)(=O)N[C@@H](C(=O)N1[C@H](C(=O)NCc2ccc(C(=N)N)cc2)C[C@@H]2CCCC[C@@H]21)c1ccccc1 (relative stereo) [Example 44, EtSO2 -Phg-cis-Ohi-p-NHCH2 C6 H4 C(NH)NH2.HCl]	–	–	–	–	0.04 × 10^6 (L/mole)	4 ng/mL	100 ng/mL	170 ng/mL	–	0.66	2,600	1.8
CCS(=O)(=O)N[C@H](Cc1ccccc1)C(=O)N1[C@H](C(=O)NCc2ccc(C(=N)N)cc2)C[C@@H]2CCCC[C@@H]21 (relative stereo) [Example 45, EtSO2 -Phe-cis-Ohi-p-NHCH2 C6 H4 C(NH)NH2.HCl]	–	1.5 × 10^6 (L/mole)	110 × 10^6 (L/mole)	1.1 × 10^6 (L/mole)	0.77 × 10^6 (L/mole)	8 ng/mL	200 ng/mL	330 ng/mL	610	–	–	–
N=C(N)c1ccc(CNC(=O)[C@@H]2C[C@@H]3CCCC[C@@H]3N2C(=O)[C@@H](CC2CCCCC2)NCC(=O)O)cc1 (relative stereo) [Example 49, HOOCCH2 -D-Cha-cis-Ohi-p-NHCH2 C6 H4 C(NH)NH2.HCl]	–	3.4 × 10^6 (L/mole)	940 × 10^6 (L/mole)	0.84 × 10^6 (L/mole)	0.04 × 10^6 (L/mole)	5 ng/mL	130 ng/mL	130 ng/mL	400	–	–	–
CC(C)CC[C@H]1C[C@@H](C(=O)NCc2ccc(C(=N)N)cc2)N(C(=O)[C@@H](CC2CCCCC2)NCC(=O)O)C1 (relative stereo) [Example 50]	40 × 10^6 (L/mole)	4.3 × 10^6 (L/mole)	2,200 × 10^6 (L/mole)	1.8 × 10^6 (L/mole)	0.04 × 10^6 (L/mole)	35 ng/mL	460 ng/mL	420 ng/mL	–	–	–	–
N=C(N)c1cccc(CNC(=O)[C@@H]2CCCN2C(=O)[C@H](N)Cc2ccccc2)c1 [Example 16, D-Phe-Pro-m-NHCH2 C6 H4 C(NH)NH2.0.75HCl]	0.97 × 10^6 (L/mole)	0.0051 × 10^6 (L/mole)	0.02 × 10^6 (L/mole)	0.0017 × 10^6 (L/mole)	0.0012 × 10^6 (L/mole)	650 ng/mL	8,600 ng/mL	8,500 ng/mL	–	–	–	–
N=C(N)c1ccc(CNC(=O)[C@@H]2CCCN2C(=O)[C@H]2C[C@H]3CCCC[C@H]3CN2)cc1 [Example 19, D-3-Piq-Pro-p-NHCH2 C6 H4 C(NH)NH2.3HCl]	–	0.14 × 10^6 (L/mole)	41 × 10^6 (L/mole)	0.16 × 10^6 (L/mole)	0.0056 × 10^6 (L/mole)	58 ng/mL	300 ng/mL	540 ng/mL	–	–	–	–
CCS(=O)(=O)N[C@H](Cc1ccccc1)C(=O)N1CCC[C@H]1C(=O)NCc1cccc(C(=N)N)c1 [Example 24, EtSO2 -D-Phe-Pro-m-NHCH2 --C6 H4 C(=NH)NH2.HCl]	0.78 × 10^6 (L/mole)	< 0.001 × 10^6 (L/mole)	0.03 × 10^6 (L/mole)	< 0.001 × 10^6 (L/mole)	< 0.001 × 10^6 (L/mole)	1,000 ng/mL	25,900 ng/mL	25,000 ng/mL	–	–	–	–
CCS(=O)(=O)N[C@H](Cc1ccccc1)C(=O)N1CCC[C@H]1C(=O)NCCc1cccc(C(=N)N)c1 [Example 27, EtSO2 -D-Phe-Pro-m-NHCH2 CH2 --C6 H4 C(=NH)NH2.HCl]	0.29 × 10^6 (L/mole)	0.02 × 10^6 (L/mole)	0.02 × 10^6 (L/mole)	< 0.001 × 10^6 (L/mole)	0.02 × 10^6 (L/mole)	1,940 ng/mL	27,800 ng/mL	27,000 ng/mL	–	–	–	–
N=C(N)c1ccc(CCNC(=O)[C@@H]2CCCN2C(=O)[C@@H]2NCC[C@@H]3CCCC[C@@H]32)cc1 [Example 28, 1-Piq-Pro-p-NHCH2 CH2 --C6 H4 C(=NH)NH2.2HCl]	0.95 × 10^6 (L/mole)	0.01 × 10^6 (L/mole)	0.11 × 10^6 (L/mole)	< 0.001 × 10^6 (L/mole)	< 0.001 × 10^6 (L/mole)	520 ng/mL	8,100 ng/mL	8,300 ng/mL	–	–	–	–
N=C(N)c1cccc(CCNC(=O)[C@@H]2CCCN2C(=O)[C@@H]2NCC[C@@H]3CCCC[C@@H]32)c1 [Example 29, 1-Piq-Pro-m-NHCH2 CH2 --C6 H4 C(=NH)NH2.2HCl]	0.76 × 10^6 (L/mole)	0.02 × 10^6 (L/mole)	0.02 × 10^6 (L/mole)	< 0.001 × 10^6 (L/mole)	< 0.001 × 10^6 (L/mole)	750 ng/mL	9,800 ng/mL	15,800 ng/mL	–	–	–	–
CCS(=O)(=O)N[C@H](Cc1ccccc1)C(=O)N1CCC[C@H]1C(=O)NCCCc1ccc(C(=N)N)cc1 [Example 30, EtSO2 -D-Phe-Pro-p-NHCH2 CH2 CH2 --C6 H4 C(=NH)NH2.HCl]	0.55 × 10^6 (L/mole)	0.02 × 10^6 (L/mole)	0.03 × 10^6 (L/mole)	< 0.001 × 10^6 (L/mole)	< 0.001 × 10^6 (L/mole)	1,000 ng/mL	14,000 ng/mL	14,400 ng/mL	–	–	–	–
CCS(=O)(=O)N[C@H](Cc1ccccc1)C(=O)N1CCC[C@H]1C(=O)NCCCc1cccc(C(=N)N)c1 [Example 31, EtSO2 -D-Phe-Pro-m-NHCH2 CH2 CH2 --C6 H4 C(=NH)NH2.HCl]	0.07 × 10^6 (L/mole)	0.14 × 10^6 (L/mole)	0.05 × 10^6 (L/mole)	< 0.001 × 10^6 (L/mole)	< 0.001 × 10^6 (L/mole)	10,800 ng/mL	34,500 ng/mL	30,000 ng/mL	–	–	–	–

From patent US5707966A, “Antithrombotic agents” (Eli Lilly and Company, priority 1995, dated 1998)
